The assay concerns the target canine 5-HT2A receptor (Canis lupus familiaris, UniProt O46635). The experiment in a line: Saturation binding of [^3H]5-HT to membranes of COS-7 cells transfected with canine 5-HT2A receptor.

Molecules are shown by their SMILES.

Here are results for one molecule from patent US7728107B2 (priority 2005, dated 2010).

canine 5-HT2A receptor, sequence (O46635 whole entry): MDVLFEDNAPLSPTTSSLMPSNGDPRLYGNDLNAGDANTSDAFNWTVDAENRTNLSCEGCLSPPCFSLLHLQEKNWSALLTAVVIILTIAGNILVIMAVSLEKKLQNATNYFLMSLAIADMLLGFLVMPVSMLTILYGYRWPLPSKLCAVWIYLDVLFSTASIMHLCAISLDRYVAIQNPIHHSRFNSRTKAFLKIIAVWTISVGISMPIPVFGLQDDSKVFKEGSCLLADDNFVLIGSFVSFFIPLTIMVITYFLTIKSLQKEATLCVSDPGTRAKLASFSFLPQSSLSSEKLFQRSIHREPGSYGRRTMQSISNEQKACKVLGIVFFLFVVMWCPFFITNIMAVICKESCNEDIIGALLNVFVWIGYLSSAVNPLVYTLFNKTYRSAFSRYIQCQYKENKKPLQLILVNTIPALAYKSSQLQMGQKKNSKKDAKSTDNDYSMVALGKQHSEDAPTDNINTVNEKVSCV

What is called Kd is a measure of binding affinity in units of concentration. Low readings indicate a tighter complex, high ones a looser complex. With `NCCc1c[nH]c2ccc(O)cc12` [[^3H]-5-HT], the Kd came to 3 ± 0.6 nM.
